The test system of one series is Saccharomyces cerevisiae. Briefly: Inhibition of yeast hexokinase assessed as Km.
Series [1] relates to U-87 MG. Briefly: Growth inhibition of human U87 cells under normoxic condition. The format is functional, cell-based, U-87MG ATCC.
The subject of series [2] is U-87 MG. Nature of the series: Growth inhibition of human U87 cells under hypoxic condition. The format is functional, cell-based, U-87MG ATCC.
Series [3] can be described thus: Ratio of tumor to blood biodistribution in rat after 60 mins. The conditions noted are these: tumor and blood. Type of series: ADME, organism-based.
Series [4] can be described thus: Drug uptake in tumor of rat measured per gram of tissue at 1 hr. The format is ADME, tissue-based, Neoplasm. The following applies: in vivo.
The nature of series [5]: Competitive inhibition of rat brain hexokinase.
Series [6] in a line: Competitive inhibition of yeast hexokinase. The arrangement: species or system Saccharomyces cerevisiae.
The test system of series [7] is SARS-CoV-2. Briefly: Antiviral activity against SARS-CoV-2 in African green monkey Vero E6 cells assessed as inhibition of virus multiplication at 1 mM. The format is functional. The conditions noted are these: Severe acute respiratory syndrome coronavirus 2, Vero C1008.
Series [8] has as its system SARS-CoV-2. Briefly: Antiviral activity against SARS-CoV-2 B.1.1.7 in African green monkey Vero E6 cells assessed as inhibition of virus multiplication. Type of series: functional, organism-based. The conditions noted are these: Severe acute respiratory syndrome coronavirus 2, B.1.1.7, Vero C1008.
The test system of series [9] is SARS-CoV-2. Nature of the series: Antiviral activity against SARS-CoV-2 in African green monkey Vero cells assessed as inhibition of virus multiplication in presence of extracellular glucose. The format is functional, Severe acute respiratory syndrome coronavirus 2.
Series [10] has as its system SARS-CoV-2. Briefly: Antiviral activity against SARS-CoV-2 B.6 in African green monkey Vero E6 cells assessed as inhibition of virus multiplication. Type of series: functional, organism-based. The conditions noted are these: Severe acute respiratory syndrome coronavirus 2, B.6, Vero C1008.

Here are results for twelve compounds from ChEMBL document CHEMBL5137002, “A Comprehensive Biological and Synthetic Perspective on 2-Deoxy-d-Glucose (2-DG), A Sweet Molecule with Therapeutic and Diagnostic Potentials” (J Med Chem, 2022).

By Km is commonly meant the substrate concentration at which the rate is half of its maximum. Usually IC50 stands for the point on the concentration scale where inhibition reaches its midpoint. Broadly, the Kp is the ratio of the level in a tissue or fluid to that in plasma or blood. As a reminder, the Ki is a measure of affinity in units of concentration, obtained from inhibition or displacement. Broadly, the inhibition is the change of the read-out against control, counted positive when it falls.

Regarding `OC[C@H]1OC(O)[C@H](O)[C@@H](F)[C@@H]1O` (stereo not given in full), the Km with Saccharomyces cerevisiae was 70000 µM.

Take `CC(=O)OC[C@H]1OC(O)C[C@@H](OC(C)=O)[C@@H]1O` (stereo not given in full): the IC50 in the series with U-87 MG [1] and with U-87 MG [2] was 1000 µM each time.

Regarding `OC[C@H]1OC(O)[C@@H]([18F])[C@@H](O)[C@@H]1O` (stereo not given in full), the Kp at 1 h in [3] turned out to be 29.4. This compound yielded a Drug uptake in series [4] of 2.65%.

`OC[C@H]1OC(O)[C@H](F)[C@@H](O)[C@@H]1O` (stereo not given in full): in the series with Saccharomyces cerevisiae, the Km was found to be 190 µM.

In the case of `OC1C[C@H](O)[C@H](O)CO1` (stereo not given in full), the Km with Saccharomyces cerevisiae is 590 µM.

With `CC(=O)Nc1c(I)c(C(=O)N[C@H]2C(O)O[C@H](CO)[C@@H](O)[C@@H]2O)c(I)c(N(C)C(C)=O)c1I` (stereo not given in full) [METRIZAMIDE], the results for the Ki in [5] and in series [6] were 20000 µM and 700 µM, respectively.

`OC[C@H]1OC(O)C[C@@H](O)[C@@H]1O` (stereo not given in full): the inhibition at 1000 µM with SARS-CoV-2 [7] worked out at 93%. Also, the IC50 in the series on SARS-CoV-2 [8] and in the series with SARS-CoV-2 [10] was < 1000 µM each time. In addition, the “inhibition (INH)” value in the series with SARS-CoV-2 [9] amounted to 7%.

`OC[C@H]1OC(O)[C@H](O)[C@@H](O)[C@@H]1F` (stereo not given in full): in the series with Saccharomyces cerevisiae, the Km stood at 84000 µM.

Consider `NC1C(O)OC(CO)[C@@H](O)[C@@H]1O` (stereo not given in full), for which the Ki in series [5] turned out to be 300 µM; in series [6], 700 µM.

Regarding `OC[C@H]1OC(O)C(F)(F)[C@@H](O)[C@@H]1O` (stereo not given in full), in the series with Saccharomyces cerevisiae, the Michaelis constant (Km) came out at 130 µM.

Consider `OC[C@H]1OC(O)[C@@H](F)[C@@H](O)[C@@H]1O` (stereo not given in full), for which the Km in the series with Saccharomyces cerevisiae was determined as 410 µM.

Regarding `OC[C@H]1OC(O)[C@H]([18F])[C@@H](O)[C@@H]1O` (stereo not given in full) [FLUDEOXYGLUCOSE F 18], in [3], the Kp at 1 h was found to be 22.1. For the same compound, the Drug uptake in [4] was 2.65%.
